# Patent US8802700B2 (Vertex Pharmaceuticals Incorporated, priority 2010, dated 2014)
# Molecular target: T1, ΔF508-CFTR (Homo sapiens, UniProt P13569, DEL508-508)
# T1 construct: expressed in transfected cells
# Assay: Membrane potential optical assay (FRET voltage-sensor dyes, VIPR), identification of potentiator compounds
# Type: cell-based
# Conditions: Table 3; assay not given
# Method in brief: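 NIH3T3 mouse fibroblasts stably expressing ΔF508-CFTR, cultured 24 h at 27 °C, were loaded with FRET voltage dyes CC2-DMPE and DiSBAC2(3). Double-addition format: first addition of Cl⁻-free (gluconate) medium with or without compound; membrane-potential change read as fluorescence on VIPR II.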
# T1 sequence (P13569 with tags, fused parts or gaps DEL508-508): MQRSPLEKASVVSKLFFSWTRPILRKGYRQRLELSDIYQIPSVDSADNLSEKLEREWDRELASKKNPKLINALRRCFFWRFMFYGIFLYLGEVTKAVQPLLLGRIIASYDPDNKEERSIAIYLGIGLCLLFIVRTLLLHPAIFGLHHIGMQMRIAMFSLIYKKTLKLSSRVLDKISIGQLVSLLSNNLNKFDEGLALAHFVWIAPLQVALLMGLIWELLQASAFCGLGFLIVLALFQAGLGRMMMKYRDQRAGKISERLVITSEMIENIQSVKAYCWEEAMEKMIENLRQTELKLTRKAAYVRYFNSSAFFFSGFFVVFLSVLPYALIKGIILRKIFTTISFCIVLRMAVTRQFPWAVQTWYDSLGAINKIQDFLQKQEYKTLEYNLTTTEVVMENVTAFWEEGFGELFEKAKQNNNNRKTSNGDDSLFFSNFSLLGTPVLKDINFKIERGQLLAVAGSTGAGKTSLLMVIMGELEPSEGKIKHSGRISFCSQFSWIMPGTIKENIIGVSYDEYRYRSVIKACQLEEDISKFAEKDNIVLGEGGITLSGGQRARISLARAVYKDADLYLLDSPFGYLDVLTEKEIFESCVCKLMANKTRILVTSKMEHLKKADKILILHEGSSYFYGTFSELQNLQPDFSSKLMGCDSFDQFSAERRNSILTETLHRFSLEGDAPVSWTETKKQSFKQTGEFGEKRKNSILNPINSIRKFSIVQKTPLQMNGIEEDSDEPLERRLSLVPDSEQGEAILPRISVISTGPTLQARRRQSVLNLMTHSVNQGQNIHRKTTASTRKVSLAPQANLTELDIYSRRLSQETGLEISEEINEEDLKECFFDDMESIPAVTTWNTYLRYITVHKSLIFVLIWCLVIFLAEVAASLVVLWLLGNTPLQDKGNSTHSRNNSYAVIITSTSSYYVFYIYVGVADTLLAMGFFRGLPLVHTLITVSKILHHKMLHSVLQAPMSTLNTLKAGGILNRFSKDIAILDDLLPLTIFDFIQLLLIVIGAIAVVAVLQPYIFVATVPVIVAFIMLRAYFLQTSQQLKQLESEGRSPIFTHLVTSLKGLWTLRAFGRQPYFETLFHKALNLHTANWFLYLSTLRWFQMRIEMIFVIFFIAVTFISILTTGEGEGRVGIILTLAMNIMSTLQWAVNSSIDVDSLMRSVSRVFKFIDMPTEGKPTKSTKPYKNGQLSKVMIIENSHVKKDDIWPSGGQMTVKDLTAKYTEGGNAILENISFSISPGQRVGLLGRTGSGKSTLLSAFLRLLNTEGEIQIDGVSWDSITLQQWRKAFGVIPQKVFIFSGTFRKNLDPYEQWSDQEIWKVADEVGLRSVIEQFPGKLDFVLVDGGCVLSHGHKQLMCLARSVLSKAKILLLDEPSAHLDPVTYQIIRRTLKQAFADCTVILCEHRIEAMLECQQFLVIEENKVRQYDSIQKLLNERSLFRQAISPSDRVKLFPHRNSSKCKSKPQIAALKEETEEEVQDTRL
row,EC50,SMILES
1,< 10 µM,"CN(C)c1cc(NC(=O)c2c[nH]c3ccccc3c2=O)ccc1C(C)(C)C [Compound 485, N-(3-Dimethylamino-4-tert-butyl-phenyl)-4-oxo-1H-quinoline-3-carboxamide]"

# Same assay, conditions: Table 3; assay not given; read-out: % Activity (% Efficacy, relative efficacy)
row,Emax,SMILES
1,25 to 100%,"O=C(Nc1ccc(C(F)(F)F)cc1Cl)c1c[nH]c2cccc(O)c2c1=O [Compound 635, N-[2-chloro-4-(trifluoromethyl)phenyl]-5-hydroxy-4-oxo-1H-quinoline-3-carboxamide]"
2,< 25%,"Cc1cccc2c(=O)c(C(=O)Nc3cc(O)c(C(C)(C)C)cc3F)c[nH]c12 [Compound 625, N-(2-fluoro-5-hydroxy-4-tert-butyl-phenyl)-8-methyl-4-oxo-1H-quinoline-3-carboxamide]"
3,25 to 100%,"CC1CCN(c2ccc(NC(=O)c3c[nH]c4ccccc4c3=O)c(C(F)(F)F)c2)C1 (stereo not shown) [Compound 555, N-[4-(3-methylpyrrolidin-1-yl)-2-(trifluoromethyl)phenyl]-4-oxo-1H-quinoline-3-carboxamide]"
4,25 to 100%,"CC(C)(C)c1ccc(O)cc1NC(=O)c1c[nH]c2cccc(O)c2c1=O [Compound 609, 5-hydroxy-N-(5-hydroxy-2-tert-butyl-phenyl)-4-oxo-1H-quinoline-3-carboxamide]"
5,25 to 100%,"C[C@H]1CCCN1c1ccc(NC(=O)c2c[nH]c3ccccc3c2=O)c(C(F)(F)F)c1 [Compound 618, (S)-N-(4-(2-methylpyrrolidin-1-yl)-2-(trifluoromethyl)phenyl)-4-oxo-1,4-dihydroquinoline-3-carboxamide]"
6,25 to 100%,"COC(=O)[C@@H]1[C@@H](C)CCN1c1ccc(NC(=O)c2c[nH]c3ccccc3c2=O)c(C(F)(F)F)c1 [Compound 530, (2S,3S)-methyl 3-methyl-1-(4-(4-oxo-1,4-dihydroquinoline-3-carboxamido)-3-(trifluoromethyl)phenyl)pyrrolidine-2-carboxylate]"
7,25 to 100%,"CC(C)(C)c1cc(F)c(NC(=O)c2c[nH]c3ccc(Cl)cc3c2=O)cc1O [Compound 561, 6-chloro-N-(2-fluoro-5-hydroxy-4-tert-butyl-phenyl)-4-oxo-1H-quinoline-3-carboxamide]"
8,25 to 100%,"O=C(Nc1ccc2cc(C(F)(F)F)[nH]c2c1)c1c[nH]c2cccc(O)c2c1=O [Compound 693, 5-hydroxy-4-oxo-N-[2-(trifluoromethyl)-1H-indol-6-yl]-1H-quinoline-3-carboxamide]"
9,25 to 100%,"Cc1ccc(C(F)(F)F)cc1NC(=O)c1c[nH]c2ccccc2c1=O [Compound 577, N-[2-methyl-5-(trifluoromethyl)phenyl]-4-oxo-1H-quinoline-3-carboxamide]"
10,< 25%,"CCn1cc(C(=O)Nc2ccccc2)c(=O)c2cc(OC)ccc21 [Compound 480, 1-ethyl-6-methoxy-4-oxo-N-phenyl-1H-quinoline-3-carboxamide]"
11,25 to 100%,"CC(C)(C)c1ccc(NC(=O)c2c[nH]c3ccc(F)cc3c2=O)cc1F [Compound 527, 6-fluoro-N-(3-fluoro-4-tert-butyl-phenyl)-4-oxo-1H-quinoline-3-carboxamide]"
12,25 to 100%,"CN(C)c1cc(NC(=O)c2c[nH]c3ccccc3c2=O)ccc1C(C)(C)C [Compound 485, N-(3-Dimethylamino-4-tert-butyl-phenyl)-4-oxo-1H-quinoline-3-carboxamide]"
13,25 to 100%,"Cc1cccc2[nH]cc(C(=O)Nc3cc4[nH]ccc4cc3C(F)(F)F)c(=O)c12 [Compound 661, 5-methyl-4-oxo-N-[5-(trifluoromethyl)-1H-indol-6-yl]-1H-quinoline-3-carboxamide]"
14,25 to 100%,"O=C(Nc1ccc(C2CCCCC2)c(O)c1)c1c[nH]c2ccccc2c1=O [Compound 564, N-(4-cyclohexyl-3-hydroxy-phenyl)-4-oxo-1H-quinoline-3-carboxamide]"
15,25 to 100%,"CC(=O)c1ccc2c(=O)c(C(=O)Nc3cc(O)c(C(C)(C)C)cc3C(C)(C)C)c[nH]c2c1 [Compound 604, 7-acetyl-N-(5-hydroxy-2,4-ditert-butyl-phenyl)-4-oxo-1H-quinoline-3-carboxamide]"
16,< 25%,"CC(C)(C)c1cc2cc[nH]c2cc1NC(=O)c1c[nH]c2c(C(F)(F)F)cccc2c1=O [Compound 559, 4-oxo-N-(5-tert-butyl-1H-indol-6-yl)-8-(trifluoromethyl)-1H-quinoline-3-carboxamide]"

# Further lines, the compound ahead of its results:
row,SMILES,Emax
1,"CCC1(c2ccc(NC(=O)c3c[nH]c4ccccc4c3=O)cc2)CCC(=O)NC1=O (stereo not shown) [Compound 57, N-[4-(3-ethyl-2,6-dioxo-3-piperidyl)phenyl]-4-oxo-1H-quinoline-3-carboxamide]",> 100%
2,"Cc1cccc2[nH]cc(C(=O)Nc3ccc(OC4CCCC4)cc3C(F)(F)F)c(=O)c12 [Compound 595, N-[4-cyclopentoxy-2-(trifluoromethyl)phenyl]-5-methyl-4-oxo-1H-quinoline-3-carboxamide]",25 to 100%
3,"CCOc1cccc(-c2ccccc2NC(=O)c2c[nH]c3ccccc3c2=O)c1 [Compound 306, N-[2-(3-ethoxyphenyl)phenyl]-4-oxo-1H-quinoline-3-carboxamide]",> 100%
4,"Cc1ccc(S(=O)(=O)Nc2ccccc2NC(=O)c2c[nH]c3ccccc3c2=O)cc1 [Compound 398, 4-oxo-N-[2-(p-tolylsulfonylamino)phenyl]-1H-quinoline-3-carboxamide]",25 to 100%
5,"O=C(Nc1ccccc1SC(F)(F)F)c1c[nH]c2ccccc2c1=O [Compound 371, 4-oxo-N-[2-(trifluoromethylsulfanyl)phenyl]-1H-quinoline-3-carboxamide]",25 to 100%
6,"O=C(Nc1cc2ccccc2cn1)c1c[nH]c2ccccc2c1=O [Compound 309, N-(3-isoquinolyl)-4-oxo-1H-quinoline-3-carboxamide]",< 25%
7,"CC(C)(C)OC(=O)N1CCC(C)(C)c2ccc(NC(=O)c3c[nH]c4ccccc4c3=O)cc21 [Compound 108, 4,4-dimethyl-7-[(4-oxo-1H-quinolin-3-yl)carbonylamino]-1,2,3,4-tetrahydroquinoline-1-carboxylic acid tert-butyl ester]",25 to 100%
8,"CC(C)(C)c1cc(NC(=O)c2c[nH]c3ccccc3c2=O)c(O)c(C(C)(C)C)c1 [Compound 136, N-(2-hydroxy-3,5-ditert-butyl-phenyl)-4-oxo-1H-quinoline-3-carboxamide]",25 to 100%
9,"Cc1cccc(-c2ccccc2NC(=O)c2c[nH]c3ccccc3c2=O)c1 [Compound 52, N-[2-(m-tolyl)phenyl]-4-oxo-1H-quinoline-3-carboxamide]",25 to 100%
10,"O=C(Nc1ccccc1)c1c[nH]c2cc(Cl)ccc2c1=O [Compound 411, 7-chloro-4-oxo-N-phenyl-1H-quinoline-3-carboxamide]",25 to 100%
11,"NC(=O)c1ccccc1NC(=O)c1c[nH]c2ccccc2c1=O [Compound 331, N-(2-carbamoylphenyl)-4-oxo-1H-quinoline-3-carboxamide]",< 25%
12,"Cc1csc(-c2ccccc2NC(=O)c2c[nH]c3ccccc3c2=O)c1 [Compound 151, N-[2-(4-methyl-2-thienyl)phenyl]-4-oxo-1H-quinoline-3-carboxamide]",25 to 100%
13,"CC1=NN(c2cccc(NC(=O)c3c[nH]c4ccccc4c3=O)c2)C(=O)C1 [Compound 212, N-[3-(3-methyl-5-oxo-1,4-dihydropyrazol-1-yl)phenyl]-4-oxo-1H-quinoline-3-carboxamide]",< 25%
14,"O=C(Nc1ccccc1)c1c[nH]c2cc(C(F)(F)F)ccc2c1=O [Compound 346, 4-oxo-N-phenyl-7-(trifluoromethyl)-1H-quinoline-3-carboxamide]",25 to 100%
15,"CCc1ccc(N(C)C)cc1NC(=O)c1c[nH]c2ccccc2c1=O [Compound 409, N-(5-dimethylamino-2-ethyl-phenyl)-4-oxo-1H-quinoline-3-carboxamide]",25 to 100%
16,"O=C(Nc1ccc(C23CC4CC(CC(C4)C2)C3)cc1)c1c[nH]c2ccccc2c1=O [Compound 455, N-[4-(1-adamantyl)phenyl]-4-oxo-1H-quinoline-3-carboxamide]",25 to 100%
17,"O=C(Nc1cc(Cl)cc(NS(=O)(=O)CCN2CCOCC2)c1)c1c[nH]c2ccccc2c1=O [Compound 46, N-[3-chloro-5-(2-morpholinoethylsulfonylamino)phenyl]-4-oxo-1H-quinoline-3-carboxamide]",25 to 100%
18,"O=C(Nc1ccccc1-c1cccc(C(F)(F)F)c1)c1c[nH]c2ccccc2c1=O [Compound 278, 4-oxo-N-[2-[3-(trifluoromethyl)phenyl]phenyl]-1H-quinoline-3-carboxamide]",25 to 100%
19,"O=C(Nc1ccc(F)cc1)c1c[nH]c2ccccc2c1=O [Compound 198, N-(4-fluorophenyl)-4-oxo-1H-quinoline-3-carboxamide]",25 to 100%
20,"CC(=O)N1CCc2ccc(NC(=O)c3c[nH]c4ccccc4c3=O)cc21 [Compound 233, N-(1-acetylindolin-6-yl)-4-oxo-1H-quinoline-3-carboxamide]",< 25%
21,"O=C(Nc1ccc(OCc2ccccc2)cc1)c1c[nH]c2ccccc2c1=O [Compound 189, N-(4-benzyloxyphenyl)-4-oxo-1H-quinoline-3-carboxamide]",25 to 100%
22,"O=C(Nc1ccccc1-c1cc(Cl)ccc1Cl)c1c[nH]c2ccccc2c1=O [Compound 213, N-[2-(2,5-dichlorophenyl)phenyl]-4-oxo-1H-quinoline-3-carboxamide]",25 to 100%
23,"CCOCCOc1cc(NC(=O)c2c[nH]c3ccccc3c2=O)ccc1C(C)(C)C [Compound 161, N-[3-(2-ethoxyethoxy)-4-tert-butyl-phenyl]-4-oxo-1H-quinoline-3-carboxamide]",25 to 100%
24,"O=C(Nc1cc(C(F)(F)F)cc(C(F)(F)F)c1)c1c[nH]c2ccccc2c1=O [Compound 154, N-[3,5-bis(trifluoromethyl)phenyl]-4-oxo-1H-quinoline-3-carboxamide]",< 25%
25,"CC1(C)CCOc2cc(NC(=O)c3c[nH]c4ccccc4c3=O)ccc21 [Compound 204, N-(4,4-dimethylchroman-7-yl)-4-oxo-1H-quinoline-3-carboxamide]",25 to 100%
26,"O=C(Nc1ccc2c(c1)OC(F)(F)O2)c1c[nH]c2ccccc2c1=O [Compound 66, N-(2,2-difluorobenzo[1,3]dioxol-5-yl)-4-oxo-1H-quinoline-3-carboxamide]",25 to 100%
